Several values for one entry are separate records, joined by “and”; a condition that tells them apart may be missing. Equal values may be shown once.
Legend:
[1] = Modafinil particle size analysis, Hiac/Royco Model 9064 sizing counter; type: physicochemical; settings: for MODAFINIL PARTICLE DIAMETER MEAN / MODAFINIL PARTICLE DIAMETER MEDIAN / MODAFINIL PARTICLE DIAMETER MODE: Hiac/Royco Model 9064, n = 4, +/− standard deviation; for STD DEVIATION BETWEEN MEAN, MEDIAN, MODE: derived from mean, median and mode particle diameter
Source text: Our particle size measurements were obtained using a Hiac/Royco Model 9064 sizing counter following manufacturer instructions (400 μm aperture; saturated water with modafinil solution; PDAS program). A summary of the results of these measurements is presented in Table 1, which includes the mean, median and mode particle sizes for six representative lots of modafinil. For comparative purposes, the standard deviation values derived from the mean, median and mode measurements are provided, as are the ratio values of median:mean:mode. Lots E-A, E-B, E-C and E-D were among the so-called early lots, and Lots L-1 and L-2 were among the so-called late lots.
Measurements obtained using instruments and techniques developed by Hiac/Royko are preferred. A Hiac/Royco sizing counter utilizes the principle of light-extinction (obscuration) for particle size detection. The principle involved is that when a particle suspended in a liquid passes through a sensor microcell where a laser beam is directed through a window at the cell, the particles in the fluid block the laser beam from a light-extinction photodiode (photodetector) resulting in a loss of light intensity. This loss of light intensity detected by the photodetector produces an electrical pulse for each particle. These pulses are proportional in amplitude to the light intensity (light extinction) which is a measure of particle size.

[2] = Modafinil particle size measurement, Coulter Counter TA II sizing counter; type: physicochemical
Source text: The value ranges defined above are based upon measurements made utilizing technology and instruments developed by the Hiac/Royko Division of Pacific Scientific (11801 Tech Road, Silver Spring, Md. 20904, United States of America). As those in the art may appreciate, different instruments manufactured by different companies may provide different measurements for the same particles. For example, in a characteristic modafinil lot (Lot L-2), the mean, median, and mode particle measurements obtained using a Coulter Counter TA II sizing counter were 43, 31, and 29 microns, respectively. Using a Hiac/Royko Model 9064 sizing counter, the mean, median and mode particle measurements obtained for Lot L-2 were 18.75, 31.41 and 25.31 microns, respectively. These differences are presumably predicated upon the different approaches used in measuring particles of such diminutive sizes. Thus, the value ranges provided above are relative and are most preferably to be considered in view of utilization of instruments and operating systems manufactured by Hiac/Royko, for example, and preferably, the Hiac/Royko Model 9064 system sizing counter.
Following this assumption, we compared various parameters from lots of the bulk drug; such comparisons had not been conducted previously, given the assumption that the modafinil being tested in the United States was the “same” as that investigated outside of the United States. Particle size distribution of the bulk drug was among the parameters examined. We have performed modafinil particle size analyses with a Hiac/Royko Model 9064 sizing counter, a Coulter Counter sizing counter, by optical microscopy and by scanning electron microscopy.

[3] = Plasma modafinil concentration in dogs after single oral dose of lots with different particle size; type: in vivo; settings: single oral dose of 200 mg, capsule, 0 to 36 hours
Protocol: Given the disparity in results between the foreign and United States studies using what was presumed to be “identical” modafinil, additional non-human analyses were necessary prior to continuation of human clinical trials. Accordingly, animal studies in dogs were carried out to determine the in vivo pharmacokinetics of modafinil with different average particle size diameters, roughly designated as having “small” (Lot L-1) and “large” (Lots E-B and E-D) median particle sizes. Nine male dogs were randomly assigned, according to body weight to three dose groups. Each group was given a single oral dose of 200 of mg modafinil weekly for three weeks in a randomized, cross-over design, as described in Table 2.
After each weekly dose, blood samples (2 ml) were drawn from all animals by venepuncture predose (within one hour of dosing), and at 0.5, 1, 2, 3, 4, 6, 8, 10, 12, 18, 24, and 36 hours post-dose. Blood samples were collected in heparinized (lithium heparin) test tubes and centrifuged at 2,500 to 3,000 rpm. The plasma was drawn off with a glass pipette, and stored frozen (−20° C.) until analyzed. The plasma concentration of modafinil, and its acid and sulfone metabolites were simultaneously determined by high-pressure liquid chromatography, according to the method of Moachon et al. (J. Chromatag. B 654:91 (1994)).

[4] = Dissolution rate of modafinil particles in deionized water (first experiment); type: physicochemical; settings: 50 mg in 500 ml deionized water, stirred, 0-60 minutes, HPLC; L-1 compared with E-D
Protocol: In the first experiment, 500 ml of deionized water was put in a 1-liter beaker and 50 mg of E-D or L-1 was added. The suspension was stirred constantly with a 5 cm Teflon-coated magnetic stir bar and a magnetic stir plate (Thermolyne model #546725). Samples of 1 ml each were taken at times 0, 1, 5, 10, 15, 20, 25, 30, 40, 50, and 60 minutes, with each sample being replaced with 1 ml of deionized water. The stir plate speed setting was “2” for the first 20 minutes, and “7” from 20 to 60 minutes Each sample was immediately filtered through a 0.45 μm filter, to remove undissolved particles. The filtered samples were assayed for modafinil, by high performance liquid chromatography, based upon the method of Moachon et al. (J. Chromatag. B 654:91 (1994)).

healthy males = experiment: First United States Phase I double-blind ascending dose clinical study; type: in vivo; settings: humans, oral, 800 mg/day dose level
Source text: While significant testing of modafinil had already been conducted outside the United States, new drug candidates, such as modafinil, typically undergo clinical research in the United States in order to corroborate the information obtained in foreign studies. The first United States clinical evaluation of modafinil was a double-blind, ascending dose study involving oral administration of modafinil to healthy males (i.e., physically and mentally healthy male subjects 18 to 50 years of age; average body weight of −10% to +15% of normal weight for age, height, frame and sex; 2101).
The planned doses for the first United States clinical trial were 200, 400, 600, 800, 1000, 1200 and 1400 mg/day of modafinil or placebo. These dose levels were based upon the safety profile observed during the foreign clinical testing of modafinil. Subsequent doses were given only when it was determined that the previously administered dose was safe and well tolerated. For example, the safety data for the 200 mg study dose was reviewed and assessed before other volunteers received the 400 mg dose.
In this first United States Phase I clinical study, modafinil from Lot L-1 was utilized. Complete data were obtained for three of the seven modafinil dose levels intended for testing, i.e., 200, 400, and 600 mg/day. […] These symptoms resolved without treatment or sequelae following drug discontinuation. […]

normal young males = experiment: Second United States Phase I study (safety, tolerance, pharmacokinetics); type: in vivo, humans; settings: oral, titrated in 200 mg/day increments, Lots L-1 or L-2
Protocol: After the discrepancy between the foreign and first United States studies was resolved and determined to be related to the differences in particle sizes, a second Phase I study was conducted in the United States, to further determine the clinical safety, tolerance and pharmacokinetic properties of modafinil having a particle size as defined. The second study involved normal young males and an experimental design similar to the first United States study (described above). In the second study, all subjects began at 200 mg/day using modafinil from Lots L-1 or L-2. Dosage was then titrated, in 200 mg/day increments, up to the target dose.

[5] = test system: patients or healthy volunteers; settings: doses tested in the foreign studies; cited from earlier work
humans = settings: cited from earlier work
mice = settings: single administration; cited from earlier work
monkeys = settings: single administration; cited from earlier work

NC(=O)C[S+]([O-])C(c1ccccc1)c1ccccc1 (centres unmarked) [Lot E-C, 2-(benzhydrylsulfinyl)acetamide]
MODAFINIL PARTICLE DIAMETER MEAN ([1]; listed as E-C): 28.27 +/− 4.10 μm | MODAFINIL PARTICLE DIAMETER MEDIAN ([1]; listed as E-C): 79.00 +/− 3.78 μm | MODAFINIL PARTICLE DIAMETER MODE ([1]; listed as E-C): 101.00 +/− 40.92 μm | STD DEVIATION BETWEEN MEAN, MEDIAN, MODE ([1]; listed as E-C): 37.30

NC(=O)C[S+]([O-])C(c1ccccc1)c1ccccc1 [Lot L-2, 2-(benzhydrylsulfinyl)acetamide]
mean particle measurement [2]: 43 microns | median particle measurement [2]: 31 microns | mode particle measurement [2]: 29 microns | MODAFINIL PARTICLE DIAMETER MEAN ([1]; listed as L-2): 18.75 +/− 1.89 μm | MODAFINIL PARTICLE DIAMETER MEDIAN ([1]; listed as L-2): 31.41 +/− 3.57 μm | MODAFINIL PARTICLE DIAMETER MODE ([1]; listed as L-2): 25.31 +/− 1.34 μm | mean particle measurement ([1]; Hiac/Royko Model 9064): 18.75 microns | median particle measurement ([1]; Hiac/Royko Model 9064): 31.41 microns | mode particle measurement ([1]; Hiac/Royko Model 9064): 25.31 microns | STD DEVIATION BETWEEN MEAN, MEDIAN, MODE ([1]; listed as L-2): 6.36

NC(=O)C[S+]([O-])C(c1ccccc1)c1ccccc1 (centres unmarked) [Lot E-D, 2-(benzhydrylsulfinyl)acetamide]
MODAFINIL PARTICLE DIAMETER MEAN ([1]; listed as E-D): 22.14 +/− 0.76 μm | MODAFINIL PARTICLE DIAMETER MEDIAN ([1]; listed as E-D): 94.05 μm and 94.05 +/− 13.75 μm | MODAFINIL PARTICLE DIAMETER MODE ([1]; listed as E-D): 158.63 +/− 63.81 μm | STD DEVIATION BETWEEN MEAN, MEDIAN, MODE ([1]; listed as E-D): 68.28 | peak plasma modafinil concentration (mean, nine dogs) ([3]; listed as E-D): 8 µg/mL

NC(=O)C[S+]([O-])C(c1ccccc1)c1ccccc1 (centres unmarked) [Lot E-A, 2-(benzhydrylsulfinyl)acetamide]
MODAFINIL PARTICLE DIAMETER MEAN ([1]; listed as E-A): 34.60 +/− 5.21 μm | MODAFINIL PARTICLE DIAMETER MEDIAN ([1]; listed as E-A): 143.65 +/− 3.26 μm | MODAFINIL PARTICLE DIAMETER MODE ([1]; listed as E-A): 176.48 +/− 5.32 μm | STD DEVIATION BETWEEN MEAN, MEDIAN, MODE ([1]; listed as E-A): 74.27

NC(=O)C[S+]([O-])C(c1ccccc1)c1ccccc1 [Lot L-1, 2-(benzhydrylsulfinyl)acetamide]
dissolution rate [4]: faster dissolution rate | MODAFINIL PARTICLE DIAMETER MEAN ([1]; listed as L-1): 21.40 +/− 2.52 μm | MODAFINIL PARTICLE DIAMETER MEDIAN ([1]; listed as L-1): 50.18 μm and 50.18 +/− 12.57 μm | MODAFINIL PARTICLE DIAMETER MODE ([1]; listed as L-1): 56.56 +/− 22.39 μm | STD DEVIATION BETWEEN MEAN, MEDIAN, MODE ([1]; listed as L-1): 18.73 | peak plasma modafinil concentration (mean, nine dogs) ([3]; listed as L-1): 10 µg/mL | adverse events (healthy males): elevations in heart rate and blood pressure

NC(=O)C[S+]([O-])C(c1ccccc1)c1ccccc1 (centres unmarked) [modafinil, 2-(benzhydrylsulfinyl)acetamide]
maximum tolerable dose (MTD) (normal young males): 600 mg/day | minimum intolerable dose (normal young males): 800 mg/day | hemodynamic changes in heart rate or blood pressure [5]: No statistically or clinically significant hemodynamic changes | treatment of idiopathic hypersomnia and narcolepsy (humans): successfully tested | locomotor activity (mice): increased locomotor activity | nocturnal activity (monkeys): increased nocturnal activity

NC(=O)C[S+]([O-])C(c1ccccc1)c1ccccc1 (centres unmarked) [Lot E-B, 2-(benzhydrylsulfinyl)acetamide]
MODAFINIL PARTICLE DIAMETER MEAN ([1]; listed as E-B): 29.99 +/− 1.09 μm | MODAFINIL PARTICLE DIAMETER MEDIAN ([1]; listed as E-B): 89.10 μm and 89.10 +/− 4.28 μm | MODAFINIL PARTICLE DIAMETER MODE ([1]; listed as E-B): 78.59 +/− 2.60 μm | STD DEVIATION BETWEEN MEAN, MEDIAN, MODE ([1]; listed as E-B): 31.53 | peak plasma modafinil concentration (mean, nine dogs) ([3]; listed as E-B): 8 µg/mL
